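1) Cells in 96-well plates. 2) Compound, 48 h, 5 concentrations. 3) Linear interpolation between surrounding doses. 4) Unreached endpoint = highest concentration. TGI: concentration producing complete growth inhibition.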
Legend:
Experiment in all cases: NCI tumour cell line growth inhibition, 48 h
NCI-H522 lung = tested on: NCI-H522 lung
K-562 leukemia = tested on: K-562 leukemia
RPMI-8226 leukemia = tested on: RPMI-8226 leukemia
MCF7 breast = tested on: MCF7 breast
IGROV1 ovarian = tested on: IGROV1 ovarian
OVCAR-4 ovarian = tested on: OVCAR-4 ovarian
SK-OV-3 ovarian = tested on: SK-OV-3 ovarian
OVCAR-8 ovarian = tested on: OVCAR-8 ovarian
MDA-MB-231 breast = tested on: MDA-MB-231 breast
MOLT-4 leukemia = tested on: MOLT-4 leukemia
MDA-MB-435 = tested on: MDA-MB-435
EKVX NSCLC = tested on: EKVX NSCLC
NCI-H23 lung = tested on: NCI-H23 lung
T-47D breast = tested on: T-47D breast
UACC-257 melanoma = tested on: UACC-257 melanoma
OVCAR-5 ovarian = tested on: OVCAR-5 ovarian
SK-MEL-2 melanoma = tested on: SK-MEL-2 melanoma
LOX IMVI melanoma = tested on: LOX IMVI melanoma
UACC-62 melanoma = tested on: UACC-62 melanoma
SF-539 CNS = tested on: SF-539 CNS
OVCAR-3 ovarian = tested on: OVCAR-3 ovarian
SF-295 CNS = tested on: SF-295 CNS
SF-268 CNS = tested on: SF-268 CNS
DU-145 prostate = tested on: DU-145 prostate
KM12 colon = tested on: KM12 colon
MALME-3M melanoma = tested on: MALME-3M melanoma
SN12C renal = tested on: SN12C renal
SK-MEL-5 melanoma = tested on: SK-MEL-5 melanoma
A549 NSCLC = tested on: A549 NSCLC
ACHN renal = tested on: ACHN renal
M14 melanoma = tested on: M14 melanoma
SK-MEL-28 melanoma = tested on: SK-MEL-28 melanoma
A498 renal = tested on: A498 renal
PC-3 prostate = tested on: PC-3 prostate
HCT-15 colon = tested on: HCT-15 colon
HS 578T breast = tested on: HS 578T breast
HL-60(TB) leukemia = tested on: HL-60(TB) leukemia
HCC-2998 colon = tested on: HCC-2998 colon
NCI/ADR-RES ovarian = tested on: NCI/ADR-RES ovarian
UO-31 renal = tested on: UO-31 renal
786-0 renal = tested on: 786-0 renal
HCT-116 colon = tested on: HCT-116 colon
U251 CNS = tested on: U251 CNS
SNB-75 CNS = tested on: SNB-75 CNS
COLO 205 colon = tested on: COLO 205 colon
CAKI-1 renal = tested on: CAKI-1 renal
HOP-62 NSCLC = tested on: HOP-62 NSCLC
HT29 colon = tested on: HT29 colon
RXF 393 renal = tested on: RXF 393 renal
MDA-N = tested on: MDA-N
TK-10 renal = tested on: TK-10 renal
HOP-92 NSCLC = tested on: HOP-92 NSCLC
NCI-H460 lung = tested on: NCI-H460 lung
SNB-19 CNS = tested on: SNB-19 CNS
SW-620 colon = tested on: SW-620 colon
NCI-H226 lung = tested on: NCI-H226 lung
CCRF-CEM leukemia = tested on: CCRF-CEM leukemia

O=C1C=CC(=O)c2c1nc(CBr)[nH]c2=O
TGI (NCI-H522 lung): > 100 µM | TGI (K-562 leukemia): > 100 µM | TGI (RPMI-8226 leukemia): > 100 µM | TGI (MCF7 breast): > 100 µM | TGI (IGROV1 ovarian): > 100 µM | TGI (OVCAR-4 ovarian): > 100 µM | TGI (SK-OV-3 ovarian): > 100 µM | TGI (OVCAR-8 ovarian): > 100 µM | TGI (MDA-MB-231 breast): > 100 µM | TGI (MOLT-4 leukemia): > 100 µM | TGI (MDA-MB-435): 87.4 µM | TGI (EKVX NSCLC): > 100 µM | TGI (NCI-H23 lung): > 100 µM | TGI (T-47D breast): > 100 µM | TGI (UACC-257 melanoma): > 100 µM | TGI (OVCAR-5 ovarian): > 100 µM | TGI (SK-MEL-2 melanoma): > 100 µM | TGI (LOX IMVI melanoma): > 100 µM | TGI (UACC-62 melanoma): > 100 µM | TGI (SF-539 CNS): > 100 µM | TGI (OVCAR-3 ovarian): > 100 µM | TGI (SF-295 CNS): > 100 µM | TGI (SF-268 CNS): > 100 µM | TGI (DU-145 prostate): > 100 µM | TGI (KM12 colon): > 100 µM | TGI (MALME-3M melanoma): > 100 µM | TGI (SN12C renal): > 100 µM | TGI (SK-MEL-5 melanoma): > 100 µM | TGI (A549 NSCLC): > 100 µM | TGI (ACHN renal): > 100 µM | TGI (M14 melanoma): > 100 µM | TGI (SK-MEL-28 melanoma): > 100 µM | TGI (A498 renal): > 100 µM | TGI (PC-3 prostate): > 100 µM | TGI (HCT-15 colon): > 100 µM | TGI (HS 578T breast): > 100 µM | TGI (HL-60(TB) leukemia): 55 µM | TGI (HCC-2998 colon): > 100 µM | TGI (NCI/ADR-RES ovarian): > 100 µM | TGI (UO-31 renal): > 100 µM | TGI (786-0 renal): > 100 µM | TGI (HCT-116 colon): > 100 µM | TGI (U251 CNS): > 100 µM | TGI (SNB-75 CNS): > 100 µM | TGI (COLO 205 colon): > 100 µM | TGI (CAKI-1 renal): > 100 µM | TGI (HOP-62 NSCLC): > 100 µM | TGI (HT29 colon): > 100 µM | TGI (RXF 393 renal): > 100 µM | TGI (MDA-N): > 100 µM

CCOC(=O)N1CCC2(CC1)C[C@@](C(C)=O)(c1ccccc1)C(C)O2 (stereo partly specified)
TGI (NCI-H522 lung): > 100 µM | TGI (K-562 leukemia): > 100 µM | TGI (RPMI-8226 leukemia): > 100 µM | TGI (MCF7 breast): > 100 µM | TGI (IGROV1 ovarian): > 100 µM | TGI (OVCAR-4 ovarian): > 100 µM | TGI (SK-OV-3 ovarian): > 100 µM | TGI (OVCAR-8 ovarian): > 100 µM | TGI (MDA-MB-231 breast): > 100 µM | TGI (MOLT-4 leukemia): > 100 µM | TGI (MDA-MB-435): > 100 µM | TGI (EKVX NSCLC): > 100 µM | TGI (NCI-H23 lung): > 100 µM | TGI (T-47D breast): 91.4 µM | TGI (UACC-257 melanoma): > 100 µM | TGI (OVCAR-5 ovarian): > 100 µM | TGI (SK-MEL-2 melanoma): > 100 µM | TGI (LOX IMVI melanoma): > 100 µM | TGI (UACC-62 melanoma): > 100 µM | TGI (SF-539 CNS): > 100 µM | TGI (OVCAR-3 ovarian): > 100 µM | TGI (SF-295 CNS): > 100 µM | TGI (SF-268 CNS): > 100 µM | TGI (DU-145 prostate): > 100 µM | TGI (TK-10 renal): > 100 µM | TGI (HOP-92 NSCLC): > 100 µM | TGI (KM12 colon): > 100 µM | TGI (MALME-3M melanoma): > 100 µM | TGI (SK-MEL-5 melanoma): > 100 µM | TGI (A549 NSCLC): > 100 µM | TGI (ACHN renal): > 100 µM | TGI (M14 melanoma): > 100 µM | TGI (SK-MEL-28 melanoma): > 100 µM | TGI (A498 renal): > 100 µM | TGI (PC-3 prostate): > 100 µM | TGI (HCT-15 colon): > 100 µM | TGI (NCI-H460 lung): > 100 µM | TGI (SNB-19 CNS): > 100 µM | TGI (HS 578T breast): > 100 µM | TGI (HL-60(TB) leukemia): > 100 µM | TGI (HCC-2998 colon): > 100 µM | TGI (NCI/ADR-RES ovarian): > 100 µM | TGI (UO-31 renal): > 100 µM | TGI (SW-620 colon): > 100 µM | TGI (786-0 renal): > 100 µM | TGI (U251 CNS): > 100 µM | TGI (SNB-75 CNS): > 100 µM | TGI (NCI-H226 lung): > 100 µM | TGI (COLO 205 colon): > 100 µM | TGI (CAKI-1 renal): > 100 µM | TGI (HOP-62 NSCLC): > 100 µM | TGI (HT29 colon): > 100 µM | TGI (MDA-N): > 100 µM

CCN(CC)CCC1CCCCN1CC(=O)N1c2cc(Cl)ccc2NC(=O)CC1C (stereo unspecified)
TGI (NCI-H522 lung): > 100 µM | TGI (K-562 leukemia): > 100 µM | TGI (RPMI-8226 leukemia): > 100 µM | TGI (MCF7 breast): > 100 µM | TGI (IGROV1 ovarian): > 100 µM | TGI (OVCAR-4 ovarian): > 100 µM | TGI (SK-OV-3 ovarian): > 100 µM | TGI (OVCAR-8 ovarian): > 100 µM | TGI (MDA-MB-231 breast): > 100 µM | TGI (MOLT-4 leukemia): > 100 µM | TGI (MDA-MB-435): > 100 µM | TGI (EKVX NSCLC): > 100 µM | TGI (NCI-H23 lung): > 100 µM | TGI (T-47D breast): > 100 µM | TGI (OVCAR-5 ovarian): > 100 µM | TGI (SK-MEL-2 melanoma): > 100 µM | TGI (LOX IMVI melanoma): > 100 µM | TGI (UACC-62 melanoma): > 100 µM | TGI (SF-539 CNS): > 100 µM | TGI (OVCAR-3 ovarian): > 100 µM | TGI (SF-295 CNS): > 100 µM | TGI (SF-268 CNS): > 100 µM | TGI (DU-145 prostate): > 100 µM | TGI (TK-10 renal): > 100 µM | TGI (HOP-92 NSCLC): > 100 µM | TGI (KM12 colon): > 100 µM | TGI (MALME-3M melanoma): > 100 µM | TGI (SN12C renal): > 100 µM | TGI (CCRF-CEM leukemia): > 100 µM | TGI (SK-MEL-5 melanoma): > 100 µM | TGI (A549 NSCLC): > 100 µM | TGI (ACHN renal): > 100 µM | TGI (M14 melanoma): > 100 µM | TGI (SK-MEL-28 melanoma): > 100 µM | TGI (A498 renal): > 100 µM | TGI (PC-3 prostate): > 100 µM | TGI (HCT-15 colon): > 100 µM | TGI (NCI-H460 lung): > 100 µM | TGI (SNB-19 CNS): > 100 µM | TGI (HS 578T breast): > 100 µM | TGI (HL-60(TB) leukemia): > 100 µM | TGI (HCC-2998 colon): > 100 µM | TGI (UO-31 renal): > 100 µM | TGI (786-0 renal): > 100 µM | TGI (HCT-116 colon): > 100 µM | TGI (U251 CNS): > 100 µM | TGI (NCI-H226 lung): > 100 µM | TGI (COLO 205 colon): > 100 µM | TGI (CAKI-1 renal): > 100 µM | TGI (HOP-62 NSCLC): > 100 µM | TGI (HT29 colon): > 100 µM | TGI (RXF 393 renal): > 100 µM | TGI (MDA-N): > 100 µM
